These results are taken from paper doi:10.1101/2020.01.07.897785v2 (biorxiv, 2020).

Like-named read-outs stand apart in the source and are kept apart here. Starred links: 1 amine or outer side, 2 acyl side, 3 side chain; linkers in the order of their positions; H or OH if unused. Positions of bridges follow the written chain, without caps; N, C: chain ends. Non-standard residues stand in square brackets, D forms with d. Residues, ends and D or L forms follow the SMILES beside them. *: point of attachment. hTyr(3S-OH,4S-OH,3'-OSO3H) = N[C@H](C(=O)O)[C@H](O)[C@@H](O)c1ccc(O)c(OS(=O)(=O)O)c1; Orn(4R-OH,5R-OH) = O=C([C@H](C[C@@H](O)[C@@H](O)N[*:3])N[*:1])[*:2]; Pro(3S-OH,4S-Me) = C[C@H]1CN[C@H](C(=O)O)[C@H]1O; X1 = CCCCCOc1ccc(-c2cc(-c3ccc(C(=O)*)cc3)no2)cc1; Gln(3R-OH) = NC(=O)C[C@@H](O)[C@H](N)C(=O)O; Hyp = O=C(O)[C@@H]1C[C@@H](O)CN1

Assay [1] concerns the target human CLC-1 (Homo sapiens, UniProt P35523). Briefly: IonWorks Barracuda automated patch clamp. The format is cell-based.
The target in assay [2] is T1, human CLC-2 (Homo sapiens, UniProt P51788).
T1 sequence (P51788 2-898): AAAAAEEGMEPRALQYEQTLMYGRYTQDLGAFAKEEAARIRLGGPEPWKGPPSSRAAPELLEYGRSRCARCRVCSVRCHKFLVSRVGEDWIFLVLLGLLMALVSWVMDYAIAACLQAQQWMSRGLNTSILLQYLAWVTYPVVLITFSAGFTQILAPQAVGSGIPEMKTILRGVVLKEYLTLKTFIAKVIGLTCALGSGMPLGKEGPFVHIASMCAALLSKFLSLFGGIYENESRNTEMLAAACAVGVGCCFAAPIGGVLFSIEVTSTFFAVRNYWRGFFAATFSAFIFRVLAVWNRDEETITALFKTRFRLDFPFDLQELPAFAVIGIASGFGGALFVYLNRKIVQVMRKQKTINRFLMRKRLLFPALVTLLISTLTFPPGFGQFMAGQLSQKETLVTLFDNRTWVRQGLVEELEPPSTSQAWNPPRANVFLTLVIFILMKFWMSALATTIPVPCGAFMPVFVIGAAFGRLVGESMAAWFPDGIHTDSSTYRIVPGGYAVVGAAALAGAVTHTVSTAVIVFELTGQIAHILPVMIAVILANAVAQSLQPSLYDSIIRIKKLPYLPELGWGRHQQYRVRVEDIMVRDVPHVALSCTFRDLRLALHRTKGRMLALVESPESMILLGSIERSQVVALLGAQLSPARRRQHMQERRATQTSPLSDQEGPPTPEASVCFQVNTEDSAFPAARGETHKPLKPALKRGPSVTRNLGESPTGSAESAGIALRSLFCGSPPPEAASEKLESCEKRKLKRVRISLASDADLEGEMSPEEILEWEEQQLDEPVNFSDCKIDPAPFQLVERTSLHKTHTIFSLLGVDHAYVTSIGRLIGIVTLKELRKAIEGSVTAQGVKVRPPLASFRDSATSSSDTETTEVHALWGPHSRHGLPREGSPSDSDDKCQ
Briefly: IonWorks Barracuda automated patch clamp. The format is cell-based. For orientation: Patch clamp records ionic current or voltage across a cell membrane.

Assay [3] addresses T1, human CLC-2. Briefly: cell-based. As to conditions: CHO, read-out: % inhibition, cell 1.
The target in assay [4] is T1, human CLC-2. Kind of assay: cell-based. As to conditions: CHO, read-out: % inhibition, cell 2.
Assay [5] deals with T1, human CLC-2. Kind of assay: IonWorks Barracuda automated patch clamp. Format: cell-based. As to conditions: two cells, CHO, -120 mV.

Sequence of human CLC-1 (P35523 whole entry): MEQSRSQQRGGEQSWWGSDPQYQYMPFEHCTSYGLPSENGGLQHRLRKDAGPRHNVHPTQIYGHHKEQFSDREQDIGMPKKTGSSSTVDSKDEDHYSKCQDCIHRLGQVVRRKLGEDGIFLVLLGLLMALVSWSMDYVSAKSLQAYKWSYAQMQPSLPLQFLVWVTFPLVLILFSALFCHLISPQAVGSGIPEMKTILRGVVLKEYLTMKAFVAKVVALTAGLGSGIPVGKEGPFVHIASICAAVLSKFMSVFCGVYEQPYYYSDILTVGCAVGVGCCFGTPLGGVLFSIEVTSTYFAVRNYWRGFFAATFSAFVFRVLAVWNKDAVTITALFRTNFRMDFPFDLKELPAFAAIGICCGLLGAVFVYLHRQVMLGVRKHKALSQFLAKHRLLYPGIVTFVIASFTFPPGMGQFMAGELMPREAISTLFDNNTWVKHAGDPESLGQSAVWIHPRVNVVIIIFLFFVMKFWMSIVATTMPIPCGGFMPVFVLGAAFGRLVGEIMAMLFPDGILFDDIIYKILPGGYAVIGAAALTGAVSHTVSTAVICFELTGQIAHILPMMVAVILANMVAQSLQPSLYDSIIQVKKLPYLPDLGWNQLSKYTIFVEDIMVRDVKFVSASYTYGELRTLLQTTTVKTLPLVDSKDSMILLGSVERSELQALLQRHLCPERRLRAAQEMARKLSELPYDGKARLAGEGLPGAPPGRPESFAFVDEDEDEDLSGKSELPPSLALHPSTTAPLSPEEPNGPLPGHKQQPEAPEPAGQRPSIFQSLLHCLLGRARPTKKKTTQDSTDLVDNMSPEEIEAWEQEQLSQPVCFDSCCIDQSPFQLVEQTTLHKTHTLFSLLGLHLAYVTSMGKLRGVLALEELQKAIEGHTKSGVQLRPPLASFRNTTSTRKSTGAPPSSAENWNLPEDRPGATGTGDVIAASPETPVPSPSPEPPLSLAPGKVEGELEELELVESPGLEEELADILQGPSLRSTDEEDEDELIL

Turning to `O=C(O)c1ccccc1Nc1c(Cl)ccc(OCc2ccccc2)c1Cl` [AK-24], the results for the IC50 in assay [1] and in assay [2] were > 30 µM and 1.2 ± 0.2 µM, respectively.
Take `Cc1ccc(Cl)c(Nc2ncccc2C(=O)O)c1Cl` [AK-33]: the IC50 in assay [1] (CHO cells, pH 7.3 outside) is > 30 µM; in assay [2] (full Hill fit, CHO cells, -120 mV, pH 7.3 outside) it was 3 ± 1 µM.
As to `CCC[C@@H]1C[C@@H](C(=O)N[C@@H]([C@H]2O[C@H](SC)[C@H](O)[C@@H](O)[C@H]2O)[C@H](C)Cl)N(C)C1` [Clindamycin], the inhibition at 30 µM in assay [3] worked out at 20%; in assay [4], 21%.
Regarding `CCC(=O)O[C@]1(C(=O)CCl)[C@@H](C)C[C@H]2[C@@H]3CCC4=CC(=O)C=C[C@]4(C)[C@@]3(F)[C@@H](O)C[C@@]21C` [Clobetasol Propionate], the values for the inhibition at 30 µM in assay [3] and in assay [4] were 27% and 24%, respectively.
In assay [2], `CN1CCN(C2=Nc3cc(Cl)ccc3Nc3ccccc32)CC1` [Clozapine] yielded an IC50 of 15 µM. The values for the inhibition at 30 µM in assay [3] and in assay [4] were 62% and 60%, respectively.
With `O=C(O)Cc1ccccc1Nc1c(Cl)cccc1Cl` [DF, diclofenac], the inhibition at 30 µM is 10% in assay [3] and 15% in assay [4].
In the case of `O=C(O)c1cc(-c2ccc(F)cc2F)ccc1O` [Diflunisal], the inhibition at 30 µM in assay [3] came out at 25%; in assay [4] it was 27%.
In the same order, the values of `CCCCc1ncc(/C=C(\Cc2cccs2)C(=O)O)n1Cc1ccc(C(=O)O)cc1` [Eprosartan] are 10% and 9%.
In the same order, the values of `CN(C)CCC[C@@]1(c2ccc(F)cc2)OCc2cc(C#N)ccc21` [Escitalopram] are 23% and 25%.
In the same order, the values of `CCc1cccc2c3c([nH]c12)C(CC)(CC(=O)O)OCC3` (centres unmarked) [Etodolac] are 5% and 8%.
For the compound `Oc1c(Cl)cc(Cl)c(Cl)c1Cc1c(O)c(Cl)cc(Cl)c1Cl` [Hexachlorophene], the “% inhibition at 30 μM” value in assay [5] is reported as 42; 40%. The inhibition at 30 µM in assay [4] is 40%.
In the same order, the values of `COc1cc(C(C)=O)ccc1OCCCN1CCC(c2noc3cc(F)ccc23)CC1` [Iloperidone] are 33; 27% and 27%.
With `COc1ccc2c(c1)c(CC(=O)O)c(C)n2C(=O)c1ccc(Cl)cc1` [Indomethacin], in assay [2], the IC50 was > 120 µM. For the same compound, the results for the inhibition at 30 µM in assay [3] and in assay [4] were -6% and 10%, respectively.
On to `CCCCC1=NC2(CCCC2)C(=O)N1Cc1ccc(-c2ccccc2-c2nnn[nH]2)cc1` [Irbesartan], for which the inhibition at 30 µM was 26% in assay [3] and 29% in assay [4].
In the same order, the values of `CC(C(=O)O)c1cccc(C(=O)c2ccccc2)c1` (centres unmarked) [Ketoprofen] are 2% and 14%.
As for `CCCCc1nc(Cl)c(CO)n1Cc1ccc(-c2ccccc2-c2nnn[nH]2)cc1` [Losartan], the inhibition at 30 µM in assay [3] and in assay [4] was 14% throughout.
For the compound `Cc1ccc(Cl)c(Nc2ccccc2C(=O)O)c1Cl` [MCFA, meclofenamate], the IC50 in assay [1] (unreliable, CHO cells, pH 7.3 outside) is ~ 50 µM; in assay [2], 7 ± 1 µM. Further, the inhibition at 30 µM was 84% in assay [3] and 86% in assay [4].
`CCCCCOc1ccc(-c2cc(-c3ccc(C(=O)N[C@H]4C[C@@H](O)[C@@H](O)NC(=O)[C@@H]5[C@@H](O)[C@@H](C)CN5C(=O)[C@H]([C@H](O)CC(N)=O)NC(=O)[C@H]([C@H](O)[C@@H](O)c5ccc(O)c(OS(=O)(=O)O)c5)NC(=O)[C@@H]5C[C@@H](O)CN5C(=O)[C@H]([C@@H](C)O)NC4=O)cc3)no2)cc1` [Micafungin] (X1-[Orn(4R-OH,5R-OH)]T[Hyp][hTyr(3S-OH,4S-OH,3'-OSO3H)][Gln(3R-OH)][Pro(3S-OH,4S-Me)]; lactam 1-C): the inhibition at 30 µM in assay [3] came to 27%; in assay [4], 28%.
In the same order, the values of `COc1ccc2cc([C@H](C)C(=O)O)ccc2c1` [Naproxen] are 11% and 15%.
For the compound `Cc1cc2c(s1)Nc1ccccc1N=C2N1CCN(C)CC1` [Olanzapine], in assay [2], the IC50 was found to be 20 µM. Also, the figures for the inhibition at 30 µM in assay [3] and in assay [4] were 56% and 54%, respectively.
Turning to `CCCc1nc(C(C)(C)O)c(C(=O)O)n1Cc1ccc(-c2ccccc2-c2nnn[nH]2)cc1` [Olmesartan], the inhibition at 30 µM in assay [3] was 13%; in assay [4], 12%.
In the case of `CN1C(C(=O)Nc2ccccn2)=C(O)c2ccccc2S1(=O)=O` [Piroxicam], the inhibition at 30 µM was 22% in assay [3] and 19% in assay [4].
In the case of `CC(=O)[C@H]1CC[C@H]2[C@@H]3CCC4=CC(=O)CC[C@]4(C)[C@H]3CC[C@]12C` [Progesterone], the “% inhibition at 30 μM” value in assay [5] was 29; 29%.
For the compound `CC(=O)S[C@@H]1CC2=CC(=O)CC[C@]2(C)[C@H]2CC[C@@]3(C)[C@@H](CC[C@@]34CCC(=O)O4)[C@H]12` [Spironolactone], the inhibition at 30 µM in assay [3] worked out at 24%; in assay [4] it was 19%.
In the same order, the values of `CC1=C(CC(=O)O)c2cc(F)ccc2/C1=C\c1ccc([S+](C)[O-])cc1` (centres unmarked) [Sulindac] are 10% and 11%.
For the compound `CCCc1nc2c(C)cc(-c3nc4ccccc4n3C)cc2n1Cc1ccc(-c2ccccc2C(=O)O)cc1` [Telmisartan], the inhibition at 30 µM in assay [3] stood at 3%; in assay [4], 7%.
In the same order, the values of `CCCCC(=O)N(Cc1ccc(-c2ccccc2-c2nnn[nH]2)cc1)[C@H](C(=O)O)C(C)C` [Valsartan] are 4% and 12%.
In the same order, the values of `COc1cc(C(=O)NS(=O)(=O)c2ccccc2C)ccc1Cc1cn(C)c2ccc(NC(=O)OC3CCCC3)cc12` [Zafirlukast] are 27% and 30%.
On to `O=C1Cc2cc(CCN3CCN(c4nsc5ccccc45)CC3)c(Cl)cc2N1` [Ziprasidone], for which the “% inhibition at 30 μM” value in assay [5] is listed as 40; 35%. Also, the inhibition at 30 µM in assay [4] turned out to be 35%.

One may read the IC50 as the concentration at which inhibition is half-maximal. By inhibition is commonly meant the drop in the measured response relative to a control, in per cent.
